From patent publication US9050353B2, “Use of icariin and epimedium flavonoids containing icariin to treat diseases associated with myelin sheath lesion” (Xuanwu Hospital of Capital Medical University, priority 2010, dated 2015)

How the values were obtained:
[1] = tested on: experimental autoimmune encephalomyelitis (EAE) mice model; experiment: Nervous function damage score in EAE mice model; format: in vivo, C57BL/6J mice; details: peak of attack, positive control drug, dose not given, scale 0-5
Experimental: (§1) Preparation of mice model and administration: experimental autoimmune encephalomyelitis (EAE) mice model is an important tool for studying various human demyelinating diseases of nervous system. In the present experiment, the preparation of EAE mice model was performed by immunizing female C57BL/6J mice with myelin sheath oligodendroglial cell surface glycoprotein MOG35-55. That is, the mice were subcutaneously injected at dorsal part of spinal column with 0.2 mL of MOG35-55 antigen elixir, and 0.2 ml of bordetella pertussis solution was intraperitoneally injected at the time of immunization injection and 48 h thereafter, respectively. Icariin was intragastrically administered after the last injection of bordetella pertussis solution, for consecutive 3 weeks.
Nervous function test method: the ethological changes of mice were observed by two experimenters every day using blind method. Scoring standard: 0 score, absence of symptom; 1 score, decrease of tail tension, evident slight gait awkward; 2 score, disappearance of tail tension, moderate gait abnormal, deficient in maintaining gesture; 3 score, limb strength weak; 4 score, limb paralysis; 5 score, near death or died.

[2] = tested on: IL-6; experiment: Serum IL-6 content by ELISA, EAE mice; format: in vivo; details: positive control drug, dose not given
Experimental: as §1
Experimental objective: interleukin-1 (IL-1) and IL-6 are important inflammatory cytokines, and have promoting effects on inflammatory reactions. This experiment used enzyme linked immunosorbent assay (ELISA) to measure contents of IL-1 and IL-6 in serums of EAE mice model, and the effects of icariin on these contents were observed.
Experimental method: mice were anesthetized with pentobarbital sodium, blood sample was taken from abdominal aorta, stood at room temperature for 2 h, centrifuged at 3000 rpm for 20 min, and supernatant was taken, stored at −80° C. for use. The operation was performed strictly according to the steps of specification of ELISA kit. Optical density was measured with ELIASA at 450 nm. The corresponding contents of IL-1 and IL-6 were calculated with the measured OD values on standard curves.

[3] = tested on: myelin basic protein (MBP); experiment: Spinal cord MBP by Western blot, EAE mice; format: in vivo; details: positive control drug, dose not given
Experimental: as §1
Experimental objective: myelin sheath is formed with prominences of oligodendroglial cells. CNPase, myelin basic protein (MBP) are marker proteins of mature oligodendroglial cells. The present experiment was to observe the expression of CNPase and MBP to represent the content of oligodendroglial cells in spinal cord of EAE model mice by Western blot method; and to study the effects of icariin on it.
Experimental method: the mice were anesthetized and sacrificed, fresh spinal cord was taken on ice, total protein was extracted by cleavage on ice, to prepare Western blot sample, added separately with CNPase, MBP primary antibodies and incubated, added with corresponding secondary antibodies, ECL colorated, Kodak film exposed. Pictures were analyzed with Image J software and standardized with β-actin.

[4] = tested on: TNF-α; experiment: TNF-α content of cerebral cortex by ELISA, EAE rats; format: in vivo; details: positive control drug, dose not given
Experimental: (§2) Preparation of rat model and administration: experimental autoimmune encephalomyelitis (EAE) model is an important tool for studying various human demyelinating diseases of nervous system. In the example, the preparation of EAE rat model was performed by multipoint immunizing female Lewis rats subcutaneously at tail root with a homogenate of spinal cord and cerebral gray matter of Guinea pig as well as complete Freund's adjuvant after emulsification. They were intragastrically administered with Epimedium flavanoids for 3 weeks.
Experimental objective: tumor necrosis factor α (TNF-α) is an important inflammatory cytokines, and has promoting effects on inflammatory reactions. This experiment used enzyme linked immunosorbent assay (ELISA) to measure TNF-α content of cerebral cortex in EAE rat model, and observe the effects of Epimedium flavanoids on the content.
Experimental method: rats were anesthetized and sacrificed, fresh brain tissues were was taken, processed to form cerebral cortex homogenate. The operation was performed strictly according to the steps of specification of ELISA kit. Optical density was measured with ELISA at 450 nm. The corresponding TNF-α content was calculated with the measured OD values on standard curve.

[5] = tested on: nitric-oxide synthase (NOS); experiment: NOS activity of cerebral cortex, biochemical kit, EAE rats; format: in vivo; details: positive control drug, dose not given
Experimental: as §2
Experimental objective: nitric-oxide synthase (NOS) catalyzes the generation of nitric oxide (NO). During inflammatory reaction, the activity of induced NOS increases, excess NO are generated and oxygen radicals are generated via oxidation, which may result in damages in nerve cells and myelin sheath. In this experiment, NOS activity and NO content were measured using biochemical kits in cerebral cortex of EAE rat model, and the effects of Epimedium flavanoids on changes thereof were observed. […]

[6] = tested on: CNPase; experiment: Cerebral cortex CNPase content by Western blot, EAE rats; format: in vivo; details: positive control drug, dose not given
Experimental: as §2
Experimental objective: myelin sheath is formed with prominences of oligodendroglial cells. […] In this experiment, CNPase content of cerebral cortex in EAE rat model was measured by Western blot method, CNPase content of spinal cord lumbar intumescentia was measured by immunohistochemical method; and the effects of Epimedium flavanoids on these contents were observed.
Experimental method: rats were anesthetized and sacrificed, cerebral cortex was taken, total protein was extracted by ice cleavage for making Western blot sample, added with CNPase primary antibody and incubated, added with corresponding secondary antibody, ECL colorated, Kodak film exposed. Pictures were analyzed by Image J software and standardized with β-actin (as internal reference).

[7] = tested on: Nerve growth factors (NGF); experiment: NGF of spinal cord lumbar intumescentia by immunohistochemical method, EAE rats; format: in vivo; details: positive control drug, dose not given
Experimental: as §2
Experimental objective: neurotrophic factors are important substances for constituting nerve regeneration microenvironment. Nerve growth factors (NGF) are important neurotrophic factors, can promote the regeneration and plerosis of nerve cells and myelin sheath. In this experiment, NGF content of spinal cord lumbar intumescentia in EAE rat model was measured by immunohistochemical method, and the effects of Epimedium flavanoids on the content was observed.
Experimental method: the rats were anesthetized with 10% chloral hydrate, fixed by perfusion of 4% paraformaldehyde, spinal cord tissues were taken for frozen section. Incubated with NGF primary antibody, added with corresponding secondary antibody and third antibody, DAB colorated, observed under microscope, and pictures were analyzed using Image Pro plus5.0 software.

CC(=O)OCC(=O)[C@@]1(O)CC[C@H]2[C@@H]3CCC4=CC(=O)C=C[C@]4(C)[C@H]3C(=O)C[C@@]21C [prednisone acetate]
Nervous function damage score [1]: 0.89 ± 0.28 | IL-6 content [2]: 0.121 ± 0.010 pg/mL | MBP/actin Integration grey level [3]: 1.05 ± 0.11 | TNF-α content [4]: 64.29 ± 7.52 pg/mg pro | NOS activity [5]: 2.44 ± 0.08 U/mg protein | CNPase/actin Integration grey level [6]: 1.33 ± 0.06 | NGF positive cell Accumulative optical density [7]: 11.25 ± 1.67 ×10^5
